Read-outs that look alike come from different tables or passages of the source.
Assays:
[1] = biological target: T1, α-glucosidase (Saccharomyces cerevisiae, EC.3.2.1.20) (Saccharomyces cerevisiae, UniProt P53341); test: biochemical; format: biochemical; conditions: mean ± SD, at least three experiments, read-out: IC50 (µM), in vitro α-glucosidase inhibitory activity
T1 construct: purchased Sigma-Aldrich
Experimental: α-Glucosidase enzyme (EC3.2.1.20, Saccharomyces cerevisiae, 20 U/mg) and substrate (p-nitrophenyl glucopyranoside) were purchased from Sigma-Aldrich. […] Finally, the change in absorbance was measured at 405 nm by using spectrophotometer (Gen5, Power wave xs2, BioTek, America). DMSO (10% final concentration) and acarbose were used respectively as control and standard drug. The percentage of enzyme inhibitionwas calculated and IC50 values were obtained from non-linear regression curve using the Logit method.

T1 sequence (P53341 whole entry): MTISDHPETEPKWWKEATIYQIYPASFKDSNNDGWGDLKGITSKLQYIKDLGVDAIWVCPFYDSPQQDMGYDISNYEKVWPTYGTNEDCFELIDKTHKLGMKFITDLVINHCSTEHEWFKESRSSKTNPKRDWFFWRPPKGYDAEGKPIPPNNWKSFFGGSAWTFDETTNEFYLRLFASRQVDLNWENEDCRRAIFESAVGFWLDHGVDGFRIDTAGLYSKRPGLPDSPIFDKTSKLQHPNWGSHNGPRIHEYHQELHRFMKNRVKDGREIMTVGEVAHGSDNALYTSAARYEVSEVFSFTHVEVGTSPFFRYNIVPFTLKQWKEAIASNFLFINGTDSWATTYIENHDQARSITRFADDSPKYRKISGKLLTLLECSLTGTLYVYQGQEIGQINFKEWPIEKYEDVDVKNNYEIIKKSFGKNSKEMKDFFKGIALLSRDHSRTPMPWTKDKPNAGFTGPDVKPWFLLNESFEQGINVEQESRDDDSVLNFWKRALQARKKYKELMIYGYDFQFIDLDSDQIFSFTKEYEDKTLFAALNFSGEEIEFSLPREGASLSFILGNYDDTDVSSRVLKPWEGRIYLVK

Structure (SMILES)	IC50 ([1]; Table 2, compounds 3aa-ai) [µM]	melting point [°C]	IC50 ([1]; Table 1, compounds 3a-z) [µM]
CCOC(=O)c1c(-c2ccccc2)nn2c(-c3ccc(Cl)cc3)c(N)c(-c3ccccc3)nc12 [3aa, Ethyl 6-amino-7-(4-chlorophenyl)-2,5-diphenylpyrazolo[1,5-a]pyrimidine-3-carboxylate]	94 ± 3.6	180 to 182	–
CCOC(=O)c1c(-c2ccccc2)nn2c(-c3ccccc3)c(N)c(-c3ccc(Cl)cc3)nc12 [3ag, Ethyl 6-amino-5-(4-chlorophenyl)-2,7-diphenylpyrazolo[1,5-a]pyrimidine-3-carboxylate]	201 ± 4.2	238 to 239	–
COc1ccc(NC(=O)c2c(Nc3ccccc3)nn3c(-c4ccc(Cl)cc4)c(N)c(-c4ccc(Cl)cc4)nc23)cc1 [3q, 6-Amino-5,7-bis(4-chlorophenyl)-N-(4-methoxyphenyl)-2-(phenylamino)pyrazolo[1,5-a]pyrimidine-3-carboxamide]	–	245 to 246	36.5 ± 2.5
Nc1c(-c2ccc(Cl)cc2)nc2c(C(=O)Nc3ccc(Cl)cc3)c(Nc3ccccc3)nn2c1-c1ccc(Cl)cc1 [3y, 6-Amino-N,5,7-tris(4-chlorophenyl)-2-(phenylamino)pyrazolo[1,5-a]pyrimidine-3-carboxamide]	–	268 to 270	38.2 ± 2.8
Nc1c(-c2ccc(Cl)cc2)nc2c(C(=O)Nc3ccc(Cl)cc3)c(Nc3ccccc3)nn2c1-c1cccs1 [3z, 6-Amino-N,5-bis(4-chlorophenyl)-2-(phenylamino)-7-(thiophen-2-yl)pyrazolo[1,5-a]pyrimidine-3-carboxamide]	–	274 to 276	19.3 ± 0.9
Cc1ccc(-c2nc3c(C(=O)Nc4ccc(Cl)cc4)c(Nc4ccccc4)nn3c(-c3ccc(Cl)cc3)c2N)cc1 [3u, 6-Amino-N,7-bis(4-chlorophenyl)-2-(phenylamino)-5-p-tolylpyrazolo[1,5-a]pyrimidine-3-carboxamide]	–	281 to 282	55.6 ± 3.6
Cc1ccc(-c2nc3c(C(=O)Nc4ccccc4)c(Nc4ccccc4)nn3c(-c3ccc(Cl)cc3)c2N)cc1 [3c, 6-Amino-7-(4-chlorophenyl)-N-phenyl-2-(phenylamino)-5-p-tolylpyrazolo[1,5-a]pyrimidine-3-carboxamide]	–	232 to 233	44.5 ± 3.1
Nc1c(-c2ccc(Cl)cc2)nc2c(C(=O)Nc3ccccc3)c(Nc3ccccc3)nn2c1-c1ccccc1 [3g, 6-Amino-5-(4-chlorophenyl)-N,7-diphenyl-2-(phenylamino)pyrazolo[1,5-a]pyrimidine-3-carboxamide]	–	285 to 286	75.6 ± 5
COc1ccc(NC(=O)c2c(Nc3ccccc3)nn3c(-c4ccc(Cl)cc4)c(N)c(-c4ccc(OC)cc4)nc23)cc1 [3o, 6-Amino-7-(4-chlorophenyl)-N,5-bis(4-methoxyphenyl)-2-(phenylamino)pyrazolo[1,5-a]pyrimidine-3-carboxamide]	–	268 to 269	56.2 ± 3.2
COc1ccc(NC(=O)c2c(Nc3ccccc3)nn3c(-c4ccccc4)c(N)c(-c4ccc(Cl)cc4)nc23)cc1 [3p, 6-Amino-5-(4-chlorophenyl)-N-(4-methoxyphenyl)-7-phenyl-2-(phenylamino)pyrazolo[1,5-a]pyrimidine-3-carboxamide]	–	245 to 246	33.2 ± 2.1
CCOC(=O)c1c(-c2ccccc2)nn2c(-c3ccc(Cl)cc3)c(N)c(-c3ccc(C)cc3)nc12 [3ac, Ethyl 6-amino-7-(4-chlorophenyl)-2-phenyl-5-p-tolylpyrazolo[1,5-a]pyrimidine-3-carboxylate]	185 ± 6	221 to 223	–
Nc1c(-c2ccc(Cl)cc2)nc2c(C(=O)Nc3ccc(Cl)cc3)c(Nc3ccccc3)nn2c1-c1ccccc1 [3x, 6-Amino-N,5-bis(4-chlorophenyl)-7-phenyl-2-(phenylamino)pyrazolo[1,5-a]pyrimidine-3-carboxamide]	–	255 to 257	80.3 ± 5.2
CCOC(=O)c1c(-c2ccccc2)nn2c(-c3ccccc3)c(N)c(-c3ccc(OC)cc3)nc12 [3ae, Ethyl 6-amino-5-(4-methoxyphenyl)-2,7-diphenylpyrazolo[1,5-a]pyrimidine-3-carboxylate]	116 ± 1.8	189 to 190	–
CCOC(=O)c1c(-c2ccccc2)nn2c(-c3ccc(Br)cc3)c(N)c(-c3ccccc3)nc12 [3ab, Ethyl 6-amino-7-(4-bromophenyl)-2,5-diphenylpyrazolo[1,5-a]pyrimidine-3-carboxylate]	150 ± 4	201 to 202	–
COc1ccc(-c2nc3c(C(=O)Nc4ccccc4)c(Nc4ccccc4)nn3c(-c3ccccc3)c2N)cc1 [3e, 6-Amino-5-(4-methoxyphenyl)-N,7-diphenyl-2-(phenylamino)pyrazolo[1,5-a]pyrimidine-3-carboxamide]	–	257 to 259	63.3 ± 4.4
Nc1c(-c2ccc(Cl)cc2)nc2c(C(=O)Nc3ccccc3)c(Nc3ccccc3)nn2c1-c1ccc(Cl)cc1 [3h, 6-Amino-5,7-bis(4-chlorophenyl)-N-phenyl-2-(phenylamino)pyrazolo[1,5-a]pyrimidine-3-carboxamide]	–	281 to 283	25.7 ± 1.1
COc1ccc(-c2nc3c(C(=O)Nc4ccc(Cl)cc4)c(Nc4ccccc4)nn3c(-c3ccccc3)c2N)cc1 [3w, 6-Amino-N-(4-chlorophenyl)-5-(4-methoxyphenyl)-7-phenyl-2-(phenylamino)pyrazolo[1,5-a]pyrimidine-3-carboxamide]	–	255 to 257	53.7 ± 3.4
COc1ccc(NC(=O)c2c(Nc3ccccc3)nn3c(-c4ccc(Cl)cc4)c(N)c(-c4ccc(C)cc4)nc23)cc1 [3l, 6-Amino-7-(4-chlorophenyl)-N-(4-methoxyphenyl)-2-(phenylamino)-5-p-tolylpyrazolo[1,5-a]pyrimidine-3-carboxamide]	–	263 to 265	49.3 ± 3.3
COc1ccc(NC(=O)c2c(Nc3ccccc3)nn3c(-c4ccc(Br)cc4)c(N)c(-c4ccccc4)nc23)cc1 [3k, 6-Amino-7-(4-bromophenyl)-N-(4-methoxyphenyl)-5-phenyl-2-(phenylamino)pyrazolo[1,5-a]pyrimidine-3-carboxamide]	–	256 to 258	57.4 ± 3.8
CCOC(=O)c1c(-c2ccccc2)nn2c(-c3cccs3)c(N)c(-c3ccc(Cl)cc3)nc12 [3ai, Ethyl 6-amino-5-(4-chlorophenyl)-2-phenyl-7-(thiophen-2-yl)pyrazolo[1,5-a]pyrimidine-3-carboxylate]	153 ± 5	192 to 193	–
COc1ccc(NC(=O)c2c(Nc3ccccc3)nn3c(-c4ccc(Cl)cc4)c(N)c(-c4ccccc4)nc23)cc1 [3j, 6-Amino-7-(4-chlorophenyl)-N-(4-methoxyphenyl)-5-phenyl-2-(phenylamino)pyrazolo[1,5-a]pyrimidine-3-carboxamide]	–	217 to 218	30.3 ± 2.1
Nc1c(-c2ccccc2)nc2c(C(=O)Nc3ccc(Cl)cc3)c(Nc3ccccc3)nn2c1-c1ccc(Br)cc1 [3t, 6-Amino-7-(4-bromophenyl)-N-(4-chlorophenyl)-5-phenyl-2-(phenylamino)pyrazolo[1,5-a]pyrimidine-3-carboxamide]	–	294 to 296	60 ± 4
Nc1c(-c2ccccc2)nc2c(C(=O)Nc3ccccc3)c(Nc3ccccc3)nn2c1-c1ccc(Br)cc1 [3b, 6-Amino-7-(4-bromophenyl)-N,5-diphenyl-2-(phenylamino)pyrazolo[1,5-a]pyrimidine-3-carboxamide]	–	235 to 237	40 ± 2.9
COc1ccc(NC(=O)c2c(Nc3ccccc3)nn3c(-c4cccs4)c(N)c(-c4ccc(Cl)cc4)nc23)cc1 [3r, 6-Amino-5-(4-chlorophenyl)-N-(4-methoxyphenyl)-2-(phenylamino)-7-(thiophen-2-yl)pyrazolo[1,5-a]pyrimidine-3-carboxamide]	–	240 to 242	18.4 ± 0.6
COc1ccc(-c2nc3c(C(=O)Nc4ccccc4)c(Nc4ccccc4)nn3c(-c3ccc(Cl)cc3)c2N)cc1 [3f, 6-Amino-7-(4-chlorophenyl)-5-(4-methoxyphenyl)-N-phenyl-2-(phenylamino)pyrazolo[1,5-a]pyrimidine-3-carboxamide]	–	237 to 238	85.7 ± 5.3
CCOC(=O)c1c(-c2ccccc2)nn2c(-c3ccc(Cl)cc3)c(N)c(-c3ccc(Cl)cc3)nc12 [3ah, Ethyl 6-amino-5,7-bis(4-chlorophenyl)-2-phenylpyrazolo[1,5-a]pyrimidine-3-carboxylate]	162 ± 3.2	245 to 246	–
COc1ccc(NC(=O)c2c(Nc3ccccc3)nn3c(-c4ccccc4)c(N)c(-c4ccc(OC)cc4)nc23)cc1 [3n, 6-Amino-N,5-bis(4-methoxyphenyl)-7-phenyl-2-(phenylamino)pyrazolo[1,5-a]pyrimidine-3-carboxamide]	–	248 to 250	42.6 ± 1.1
Nc1c(-c2ccccc2)nc2c(C(=O)Nc3ccc(Cl)cc3)c(Nc3ccccc3)nn2c1-c1ccc(Cl)cc1 [3s, 6-Amino-N,7-bis(4-chlorophenyl)-5-phenyl-2-(phenylamino)pyrazolo[1,5-a]pyrimidine-3-carboxamide]	–	274 to 275	42.3 ± 3.1
CCOC(=O)c1c(-c2ccccc2)nn2c(-c3ccc(Br)cc3)c(N)c(-c3ccc(C)cc3)nc12 [3ad, Ethyl 6-amino-7-(4-bromophenyl)-2-phenyl-5-p-tolylpyrazolo[1,5-a]pyrimidine-3-carboxylate]	141 ± 7	230 to 232	–
Nc1c(-c2ccccc2)nc2c(C(=O)Nc3ccccc3)c(Nc3ccccc3)nn2c1-c1ccc(Cl)cc1 [3a, 6-Amino-7-(4-chlorophenyl)-N,5-diphenyl-2-(phenylamino)pyrazolo[1,5-a]pyrimidine-3-carboxamide]	–	248 to 249	37.8 ± 2.5

Reference: paper PMC7018746, “An efficient and targeted synthetic approach towards new highly substituted 6-amino-pyrazolo[1,5-a]pyrimidines with α-glucosidase inhibitory activity” (Scientific Reports, 2020)
